Literature values as cited in EP0268926A2, “Safened sorptive granular pesticidal resin compositions for controlling soil borne pests and process for the preparation thereof” (priority 1986, dated 1988).

Test system: rats
Conditions: technical pesticide

CCOP(=S)(OCC)SCSCC [phorate, O,O-diethyl-S-(ethylthiomethyl)phosphorodithioate]
acute oral LD50 value in rats: 1.6-3.7 mg technical/kg
